From ChEMBL document CHEMBL1201862, “PubChem BioAssay data set” (2004)
The source made the active and inactive calls.

Key:
[1] = target: E3 ubiquitin-protein ligase Mdm2 (Homo sapiens, UniProt Q00987); experiment: MDM2-luc reporter signal enhancers, multi-concentration potency testing, MDM2 ubiquitin-protein ligase inhibitor program, whole-cell format, luminescence detection, 384-well microplate (AID 1394); format: functional;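 also: MDM2 E3 inhibitors raise luminescence so EC50 is for signal enhancement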
E3 ubiquitin-protein ligase Mdm2, sequence (Q00987 whole entry): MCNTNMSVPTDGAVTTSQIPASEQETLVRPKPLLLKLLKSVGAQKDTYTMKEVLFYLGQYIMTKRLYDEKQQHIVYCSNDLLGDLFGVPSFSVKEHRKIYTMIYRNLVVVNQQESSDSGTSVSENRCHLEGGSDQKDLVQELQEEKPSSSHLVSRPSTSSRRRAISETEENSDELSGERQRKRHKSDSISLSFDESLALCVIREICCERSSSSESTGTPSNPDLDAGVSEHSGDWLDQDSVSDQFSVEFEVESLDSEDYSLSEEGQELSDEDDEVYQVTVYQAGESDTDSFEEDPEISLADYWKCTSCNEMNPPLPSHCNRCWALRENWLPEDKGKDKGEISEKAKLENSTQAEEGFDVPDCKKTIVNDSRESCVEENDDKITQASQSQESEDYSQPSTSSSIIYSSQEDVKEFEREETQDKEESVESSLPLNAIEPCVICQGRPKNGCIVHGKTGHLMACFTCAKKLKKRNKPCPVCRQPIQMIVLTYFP

[2] = HIV-1 Vif–A3G interaction blockers – biochemical, TR-FRET, GST-Vif 1-94, biotin-A3G peptide, dose response retest, primary screen (AID 1117319); format: functional;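 also: TR-FRET signal of purified GST-Vif binding a biotinylated A3G peptide; inhibitors lower the FRET signal by blocking Vif and A3G binding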
[3] = A cytotoxicity screen of small molecule inhibitors of the PhoP region in Salmonella typhi identified in the primary screen. [Related pubchem assays: 1850, 1864, 1985 ]; format: functional
Leucine aminopeptidase = target: T1, Leucine aminopeptidase (Plasmodium falciparum 3D7, UniProt Q8IL11); experiment: P. falciparum M17LAP inhibitors, primary screen, biochemical, fluorogenic H-Leu-NHMec substrate, 1536-well (AID 1619); format: functional
T1 sequence (Q8IL11 whole entry): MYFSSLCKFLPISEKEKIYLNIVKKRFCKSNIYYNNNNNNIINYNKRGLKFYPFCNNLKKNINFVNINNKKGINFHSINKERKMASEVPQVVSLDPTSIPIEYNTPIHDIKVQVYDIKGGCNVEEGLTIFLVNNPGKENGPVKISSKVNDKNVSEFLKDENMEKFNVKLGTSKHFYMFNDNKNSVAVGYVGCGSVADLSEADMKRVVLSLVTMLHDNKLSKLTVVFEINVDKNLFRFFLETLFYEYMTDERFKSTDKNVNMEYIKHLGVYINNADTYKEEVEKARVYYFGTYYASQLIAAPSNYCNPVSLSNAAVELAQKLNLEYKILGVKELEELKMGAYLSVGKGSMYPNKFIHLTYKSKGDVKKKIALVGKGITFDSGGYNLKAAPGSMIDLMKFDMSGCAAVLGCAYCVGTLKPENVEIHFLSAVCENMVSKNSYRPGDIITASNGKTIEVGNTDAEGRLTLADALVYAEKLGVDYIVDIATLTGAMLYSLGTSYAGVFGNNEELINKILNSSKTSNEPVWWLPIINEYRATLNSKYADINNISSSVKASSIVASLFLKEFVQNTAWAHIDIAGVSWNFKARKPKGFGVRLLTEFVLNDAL

Aspartyl aminopeptidase = target: T2, Aspartyl aminopeptidase (Plasmodium falciparum 3D7, UniProt Q8I2J3); experiment: Counterscreen for inhibitors of M1 and M17 aminopeptidases: QFRET-based biochemical high throughput dose response assay for inhibitors of the Plasmodium falciparum M18 Aspartyl Aminopeptidase (PFM18AAP). [Related PubChem assays: 1619 (Screening assay (M17LAP inhibitors).), 1445 (Screening assay (M1AAP inhibitors).)]
T2 sequence (Q8I2J3 whole entry): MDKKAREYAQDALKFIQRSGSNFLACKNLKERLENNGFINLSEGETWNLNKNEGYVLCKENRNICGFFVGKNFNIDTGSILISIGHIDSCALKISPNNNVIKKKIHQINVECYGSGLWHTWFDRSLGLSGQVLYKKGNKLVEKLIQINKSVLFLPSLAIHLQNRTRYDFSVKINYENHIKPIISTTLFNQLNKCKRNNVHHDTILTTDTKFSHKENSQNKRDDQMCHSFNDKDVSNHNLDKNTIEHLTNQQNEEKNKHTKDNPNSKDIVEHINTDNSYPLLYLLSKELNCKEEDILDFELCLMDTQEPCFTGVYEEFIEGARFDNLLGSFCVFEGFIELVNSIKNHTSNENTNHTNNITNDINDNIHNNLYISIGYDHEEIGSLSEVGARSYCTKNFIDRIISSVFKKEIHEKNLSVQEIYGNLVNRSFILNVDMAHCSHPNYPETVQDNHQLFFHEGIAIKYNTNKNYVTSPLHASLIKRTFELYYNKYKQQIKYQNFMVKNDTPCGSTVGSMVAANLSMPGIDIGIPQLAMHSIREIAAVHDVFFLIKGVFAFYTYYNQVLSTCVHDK

Procathepsin L = Procathepsin L (Homo sapiens, UniProt P07711); experiment: CTSL1 protease inhibition – biochemical, QFRET, 1536-well, counter-screen for M1/M17 aminopeptidase inhibitor project, dose response (AID 2214)
Procathepsin L, sequence (P07711 whole entry): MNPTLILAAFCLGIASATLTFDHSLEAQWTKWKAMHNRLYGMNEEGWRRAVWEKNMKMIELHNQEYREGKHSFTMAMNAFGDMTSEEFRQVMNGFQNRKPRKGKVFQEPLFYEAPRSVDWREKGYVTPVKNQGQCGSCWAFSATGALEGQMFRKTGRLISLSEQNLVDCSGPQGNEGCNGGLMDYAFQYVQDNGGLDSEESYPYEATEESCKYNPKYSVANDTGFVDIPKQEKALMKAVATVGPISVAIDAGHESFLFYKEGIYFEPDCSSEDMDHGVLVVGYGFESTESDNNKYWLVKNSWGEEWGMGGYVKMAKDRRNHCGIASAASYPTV

Protein Tat = target: T3, Protein Tat (Human immunodeficiency virus type 1 group M subtype B (isolate HXB2)(HIV-1), UniProt P04608); format: functional;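 also: tat binding to TAR RNA read out by fluorescence polarization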
T3 sequence (P04608 whole entry): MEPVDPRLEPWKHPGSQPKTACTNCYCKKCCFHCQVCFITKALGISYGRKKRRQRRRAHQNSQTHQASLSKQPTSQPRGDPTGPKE

[4] = cytotoxicity toward HCT116 cells – cell-based, CellTiter-Glo luminescence, IC50, dose response (AID 1117332); format: functional; conditions: HCT-116
[5] = SNU-C1 cell viability reduction, dose response, CellTiter-Glo luminescence (AID 1117323); format: functional, cell-based
[6] = RKO cell viability reduction, dose response, CellTiter-Glo luminescence (AID 1117322); format: functional
[7] = cytotoxicity toward HT-29 cells – cell-based, CellTiter-Glo luminescence, IC50, dose response (AID 1117330); format: functional
[8] = CellTiter-Glo luminescence survival assay, SW480 colon tumor line, concentration-response curve, half-maximal inhibitory concentration (AID 1117338); format: functional
[9] = HCT116 cell viability decrease, GSK3B pretreatment – CellTiter-Glo, IC50, dose response (AID 1117339); format: functional; conditions: HCT-116
[10] = cytotoxicity toward Colo320 cells – cell-based, CellTiter-Glo luminescence, IC50, dose response (AID 1117334); format: functional; conditions: COLO 320
[11] = Reduced DLD-1 viability, concentration-response, CellTiter-Glo luminescence (AID 1117352); format: functional
[12] = OVCAR-3 cell viability loss – plate reader, dry powder samples, PAX8 inhibitor project, dose response (AID 743044); format: functional, cell-based
[13] = OVCAR8 cell viability loss – plate reader, dry powder samples, PAX8 project, dose response (AID 743197); format: functional, cell-based; conditions: OVCAR-8
[14] = IGROV1 cell killing – plate reader, dry powder samples, PAX8 inhibitor project, dose response (AID 743043); format: functional, cell-based; conditions: IGROV-1
Paired box protein Pax-8 = Paired box protein Pax-8 (Homo sapiens, UniProt Q06710); experiment: PAX8 transcriptional activity inhibition in RMG-I – RMG-I cells, luciferase, cherry-pick, dose response (AID 687027); format: functional, cell-based;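 also: luciferase reporter driven by Pax8 target thyroperoxidase promoter measured by SteadyGlo luminescence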
Paired box protein Pax-8, sequence (Q06710 whole entry): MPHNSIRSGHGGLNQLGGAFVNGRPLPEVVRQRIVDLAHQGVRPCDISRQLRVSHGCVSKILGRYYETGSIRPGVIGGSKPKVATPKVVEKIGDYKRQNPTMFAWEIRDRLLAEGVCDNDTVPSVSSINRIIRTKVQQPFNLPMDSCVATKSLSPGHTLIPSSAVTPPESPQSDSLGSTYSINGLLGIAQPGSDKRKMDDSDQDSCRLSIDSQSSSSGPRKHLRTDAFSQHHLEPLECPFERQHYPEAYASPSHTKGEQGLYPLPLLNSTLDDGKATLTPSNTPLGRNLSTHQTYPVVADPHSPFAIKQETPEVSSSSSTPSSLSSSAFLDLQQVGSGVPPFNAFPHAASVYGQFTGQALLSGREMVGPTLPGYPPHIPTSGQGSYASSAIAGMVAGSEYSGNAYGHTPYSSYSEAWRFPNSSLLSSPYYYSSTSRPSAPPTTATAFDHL

[15] = Late-stage results from the probe development effort to identify antagonists of arginine vasopressin receptor 1a (AVPR1a): fluorescence-based cell-based dose response AVPR1a inhibition assay.; format: functional
[16] = Late-stage results from the probe development effort to identify antagonists of arginine vasopressin receptor 1a (AVPR1a): fluorescence-based cell-based dose response OXTR inhibition counterscreen assay.; format: functional
Vasopressin V2 receptor = Vasopressin V2 receptor (Homo sapiens, UniProt P30518); experiment: Late-stage results from the probe development effort to identify antagonists of arginine vasopressin receptor 1a (AVPR1a): fluorescence-based cell-based dose response AVPR2 inhibition counterscreen assay.; format: functional
Vasopressin V2 receptor, sequence (P30518 whole entry): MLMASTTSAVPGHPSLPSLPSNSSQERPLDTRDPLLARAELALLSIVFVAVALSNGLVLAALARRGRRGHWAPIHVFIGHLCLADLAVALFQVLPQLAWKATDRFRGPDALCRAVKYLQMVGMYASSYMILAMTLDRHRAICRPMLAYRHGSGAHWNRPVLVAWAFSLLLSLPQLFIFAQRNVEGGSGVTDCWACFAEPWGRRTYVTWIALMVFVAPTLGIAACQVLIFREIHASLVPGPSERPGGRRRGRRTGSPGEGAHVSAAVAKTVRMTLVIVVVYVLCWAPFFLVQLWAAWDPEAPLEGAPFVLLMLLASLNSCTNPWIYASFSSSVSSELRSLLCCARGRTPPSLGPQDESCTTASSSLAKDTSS

Vasopressin V1b receptor = Vasopressin V1b receptor (Homo sapiens, UniProt P47901); experiment: Late-stage results from the probe development effort to identify antagonists of arginine vasopressin receptor 1a (AVPR1a): fluorescence-based cell-based dose response AVPR1b inhibition counterscreen assay.; format: functional
Vasopressin V1b receptor, sequence (P47901 whole entry): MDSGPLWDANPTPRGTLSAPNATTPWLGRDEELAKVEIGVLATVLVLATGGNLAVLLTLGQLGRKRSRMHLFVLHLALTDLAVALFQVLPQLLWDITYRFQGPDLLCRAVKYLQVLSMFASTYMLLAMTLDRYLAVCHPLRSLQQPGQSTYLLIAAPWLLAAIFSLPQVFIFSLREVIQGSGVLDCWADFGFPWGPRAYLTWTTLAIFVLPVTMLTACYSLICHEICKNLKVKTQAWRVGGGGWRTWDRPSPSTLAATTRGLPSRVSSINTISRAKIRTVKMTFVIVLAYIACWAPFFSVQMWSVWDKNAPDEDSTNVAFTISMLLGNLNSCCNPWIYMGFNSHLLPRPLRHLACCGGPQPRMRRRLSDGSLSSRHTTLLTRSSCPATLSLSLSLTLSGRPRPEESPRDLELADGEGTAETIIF

[17] = Dd2 parasite growth inhibition in erythrocytes – SYBR Green, dry powder samples, set 9, dose response (AID 1159568); format: functional, cell-based
[18] = IC50 of insulin release inhibition, rat insulinoma INS-1E line, 5 mM glucose, cell-based (AID 1117331); format: functional
Cytochrome P450 1A2 = target: T4, Cytochrome P450 1A2 (Homo sapiens, UniProt P05177);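 also: PubChem cytochrome P450 panel assay, CYP1A2 panel member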
T4 sequence (P05177 whole entry): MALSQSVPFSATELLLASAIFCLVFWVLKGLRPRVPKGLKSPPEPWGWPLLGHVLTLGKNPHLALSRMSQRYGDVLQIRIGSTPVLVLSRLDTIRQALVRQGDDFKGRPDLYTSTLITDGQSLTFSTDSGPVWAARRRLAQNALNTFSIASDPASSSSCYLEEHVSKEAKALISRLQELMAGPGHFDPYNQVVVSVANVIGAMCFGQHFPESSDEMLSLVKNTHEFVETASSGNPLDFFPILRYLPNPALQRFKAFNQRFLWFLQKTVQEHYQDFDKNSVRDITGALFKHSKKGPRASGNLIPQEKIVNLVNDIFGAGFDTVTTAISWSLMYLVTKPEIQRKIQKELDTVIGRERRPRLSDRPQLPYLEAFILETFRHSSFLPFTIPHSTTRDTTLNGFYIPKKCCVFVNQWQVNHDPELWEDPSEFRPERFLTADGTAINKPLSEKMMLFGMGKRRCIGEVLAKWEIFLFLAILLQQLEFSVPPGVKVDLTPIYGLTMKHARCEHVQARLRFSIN

With `Cc1ccc(C)c(NC(=O)C(Sc2nnc(-c3cccs3)o2)c2ccccc2)c1` (stereo not given) the EC50 [1] was 25 µM (not active).
For `COC(=O)c1ccc(CSc2nc3ccccc3c(=O)n2-c2ccc(OC)c(OC)c2)o1`, the IC50 [2] was > 100 µM (active) and the EC50 [3] was > 50 µM (active).
With `Cc1cccc(Nc2nnc(SC3CCOC3=O)s2)c1C` (stereo not given) the IC50 (Leucine aminopeptidase) was 2.23 µM (active), the IC50 (Aspartyl aminopeptidase) was > 73.5 µM (not active) and the IC50 (Procathepsin L) was > 59.6 µM (not active).
In the case of `CCOc1ccc(Nc2nc3ccccc3n3nnnc23)cc1`, the IC50 [2] is reported as > 100 µM (active) and the IC50 (Protein Tat) is reported as > 100 µM (active).
With `N=C(NN=Cc1ccc(Cl)cc1)NN=Cc1ccc(Cl)cc1` the IC50 [4] was 0.394 µM (active), the IC50 [5] was 0.28 µM (active) and the IC50 [6] was 0.47 µM (active). For the same compound, the IC50 [7] was 0.681 µM (active), the IC50 [8] was 0.225 µM (active) and the IC50 [9] was 0.344 µM (active). The IC50 [10] was 0.458 µM (active) and the IC50 [11] was 0.654 µM (active).
For `Cc1ccc(S(=O)(=O)N(C)C[C@H]2OCCCC[C@H](C)Oc3ccc(NS(=O)(=O)c4ccc(F)cc4)cc3C(=O)N([C@H](C)CO)C[C@@H]2C)cc1`, the AC50 [12] was 29.3 µM (active), the AC50 [13] was > 70 µM (inactive) and the AC50 [14] was 67.9 µM (active). For the same compound, the AC50 (Paired box protein Pax-8) was 3.32 µM (active).
For `Cc1ccnc(N2CCC(C(=O)N(CC3CC3)c3ccc(Cl)cc3)CC2)c1`, the IC50 [15] was 0.0052 µM (active), the IC50 [16] was 9.1 µM (active) and the IC50 (Vasopressin V2 receptor) was 13.6 µM (inactive). For the same compound, the IC50 (Vasopressin V1b receptor) was 18.2 µM (inactive).
In the case of `CN1c2ccc(C#Cc3cccnc3)cc2[C@@H]2[C@@H](CCN2C(=O)c2cccc(F)c2)[C@@H]1CO`, the AC50 [17] is reported as 4.46 µM (active).
In the case of `O=C1NCN(c2ccccc2)C12CCN(CCCOc1ccc(F)cc1)CC2` [SPIRAMIDE], the IC50 [4] is reported as 8.82 µM (inactive), the IC50 [5] is reported as 0.242 µM (active) and the IC50 [18] is reported as > 33.3 µM (inactive). The IC50 [6] was 5.31 µM (inactive), the IC50 [7] was 2.46 µM (active) and the IC50 [8] was 4.61 µM (active). For the same compound, the IC50 [9] was 5.33 µM (inactive), the IC50 [10] was 11.8 µM (inactive) and the AC50 (Cytochrome P450 1A2) was 39.8 µM (inconclusive). The IC50 [11] was 0.882 µM (active).
